Test results taken from ChEMBL document CHEMBL2417425, “Design and synthesis of positional isomers of 5 and 6-bromo-1-[(phenyl)sulfonyl]-2-[(4-nitrophenoxy)methyl]-1H-benzimidazoles as possible antimicrobial and antitubercular agents” (2013).
Values after ≈ are worked out from the molar mass of the structure shown.

Legend:
Format in all cases: functional
[1] = test system: Mycolicibacterium fortuitum; experiment: Antimycobacterial activity against Mycobacterium fortuitum ATCC 19542 assessed as growth inhibition at 0.3125 to 5 ug/mL by resazurin assay
[2] = test system: Klebsiella pneumoniae; experiment: Antibacterial activity against Klebsiella pneumoniae assessed as growth inhibition by serial dilution method
[3] = test system: Mycolicibacterium fortuitum; experiment: Antimycobacterial activity against Mycobacterium fortuitum ATCC 19542 assessed as growth inhibition at 1 to 100 ug/mL by resazurin assay
[4] = test system: Mycolicibacterium smegmatis; experiment: Antimycobacterial activity against Mycobacterium smegmatis ATCC 19420 assessed as growth inhibition at 1 to 100 ug/mL by resazurin assay
[5] = test system: Rhizopus; experiment: Antifungal activity against Rhizopus sp. assessed as growth inhibition by serial dilution method
[6] = test system: Klebsiella pneumoniae; experiment: Potency index, ratio of ciprofloxacin MIC to compound MIC for Klebsiella pneumoniae
[7] = test system: Staphylococcus aureus; experiment: Potency index, ratio of ciprofloxacin MIC to compound MIC for Staphylococcus aureus
[8] = test system: Candida albicans; experiment: Antifungal activity against Candida albicans assessed as growth inhibition by serial dilution method
[9] = test system: Staphylococcus aureus; experiment: Antibacterial activity against Staphylococcus aureus assessed as growth inhibition by serial dilution method
[10] = test system: Mycobacterium tuberculosis; experiment: Antimycobacterial activity against Mycobacterium tuberculosis H37Rv assessed as growth inhibition at 1 to 100 ug/mL by resazurin assay
[11] = test system: Mycolicibacterium smegmatis; experiment: Antimycobacterial activity against Mycobacterium smegmatis ATCC 19420 assessed as growth inhibition at 0.3125 to 5 ug/mL by resazurin assay
[12] = test system: Escherichia coli; experiment: Antibacterial activity against Escherichia coli assessed as growth inhibition by serial dilution method
[13] = test system: Aspergillus flavus; experiment: Antifungal activity against Aspergillus flavus assessed as growth inhibition by serial dilution method
[14] = test system: Mycobacterium tuberculosis; experiment: Antimycobacterial activity against Mycobacterium tuberculosis H37Rv assessed as growth inhibition at 0.3125 to 5 ug/mL by resazurin assay

O=[N+]([O-])c1ccc(OCc2nc3cc(Br)ccc3n2S(=O)(=O)c2cc(F)ccc2F)cc1
MIC [1]: 10 µg/mL (≈ 19.1 µM) | MIC [2]: 4 µg/mL (≈ 7.63 µM) | MIC [3]: 10 µg/mL (≈ 19.1 µM) | MIC [4]: 10 µg/mL (≈ 19.1 µM) | MIC [5]: 16 µg/mL (≈ 30.5 µM) | PI [6]: 2 | PI [7]: 1 | MIC [8]: 16 µg/mL (≈ 30.5 µM) | MIC [9]: 4 µg/mL (≈ 7.63 µM) | growth inhibition (GI) [10]: 95% | MIC ([10]; Mycobacterium tuberculosis, H37Rv): 1 µg/mL (≈ 1.91 µM) | MIC [11]: 10 µg/mL (≈ 19.1 µM) | MIC [12]: 32 µg/mL (≈ 61 µM) | MIC [13]: 8 µg/mL (≈ 15.3 µM) | MIC [14]: 0.625 µg/mL (≈ 1.19 µM)
